Key:
[1] = test system: Caspase-3; test: Caspase-3 activation assay; format: cell-based, human; details: A-594 cells; for Caspase-3 Fold change: at IC50 concentration, vs untreated control; for Caspase-3 Conc: compound at its IC50 concentration
[2] = test system: Bax; test: Bax activation assay; format: cell-based, human; details: lung (A-549) cancer cells; for Bax Fold change: at IC50, vs untreated control; for Bax Conc: compound at IC50
Experimental: Cells were obtained from American Type Culture Collection, cells were grown in RPMI 1640 containing 10% fetal bovine serum at 37°C, stimulated with the compounds to be tested for caspase8, and lysed with Cell Extraction Buffer. This lysate was diluted in Standard Diluent Buffer over the range of the assay and measured for human active caspase-8 content. […]
4.2.7. Bax activation assay
Bring all reagents, except the human Bax-α Standard, to room temperature for at least 30 minutes prior to opening. The human Bax-α Standard solution should not be left at room temperature for more than 10 minutes. All standards, controls and samples should be run in duplicate. Refer to the Assay Layout Sheet to determine the number of wells to be used and put any remaining wells with the desiccant back into the pouch and seal the ziploc. Store unused wells at 4 °C. Pipet 100 μL of Assay Buffer into the S0 (0 pg/mL standard) wells. Pipet 100 μL of Standards #1 through #6 into the appropriate wells. Pipet 100 μL of the Samples into the appropriate wells. Tap the plate gently to mix the contents. Seal the plate and incubate at room temperature on a plate shaker for 1 hour at ~500 rpm. Empty the contents of the wells and wash by adding 400 μL of wash solution to every well. Repeat the wash 4 more times for a total of 5 washes. After the final wash, empty or aspirate the wells and firmly tap the plate on a lint free paper towel to remove any remaining wash buffer.
Pipet 100 μL of yellow Antibody into each well, except the Blank. Seal the plate and incubate at room temperature on a plate shaker for 1 hour at ~500 rpm. Empty the contents of the wells and wash by adding 400 μL of wash solution to every well. Repeat the wash 4 more times for a total of 5 washes. After the final wash, empty or aspirate the wells and firmly tap the plate on a lint free paper towel to remove any remaining wash buffer. Add 100 μL of blue Conjugate to each well, except the Blank. Seal the plate and incubate at room temperature on a plate shaker for 30 minutes […]
Pipet 100 μL of Substrate Solution into each well. Incubate for 30 minutes at room temperature on a plate shaker at ~500 rpm. Pipet 100 μL Stop Solution to each well. Blank the plate reader against the Blank wells, read the optical density at 450 nm. Calculate the average net Optical Density (OD) bound for each standard and sample by subtracting the average Blank OD from the average OD for each standard and sample. Using linear graph paper, plot the Average Net OD for each standard versus Bax concentration in each standard. Approximate a straight line through the points.
The concentration of Bax in the unknowns can be determined by interpolation. […]

[3] = test system: Caspase-8; test: Caspase-8 activation assay; format: cell-based, human; details: A-594 cells; for Caspase-8 Fold change: at IC50 concentration, vs untreated control; for Caspase-8 Conc: compound at its IC50 concentration
Experimental: When cells get specific signal instructions, they undergo apoptosis, which results in several significant changes. Caspases, considered the main workers in apoptosis, are activated early in the process, cleaving critical cellular components such as nuclear proteins like DNA repair enzymes or structural proteins found in the cytoskeleton that are required for optimal cellular function.
4.2.6. Caspase-8 activation assay […]
caspase8, and lysed with Cell Extraction Buffer. This lysate was diluted in Standard Diluent Buffer over the range of the assay and measured for human active caspase-8 content. (Cells are Plated in a density of 1.2 – 1.8 × 10,000 cells/well in a volume of 100µl complete growth medium + 100 ul of the tested compound per well in a 96-well plate for 24 hours before the enzyme assay for Tubulin.). The absorbance of each microwell was read on a spectro-photometer at 450 nm. A standard curve is prepared from 7human Caspase-8 standard dilutions and human Caspase-8 concentration determined. […]

[4] = test system: Bcl-2; test: Bcl-2 inhibition assay; format: cell-based, human; details: lung (A-549) cancer cells; for Bcl-2 Conc: compound at IC50
Experimental: 4.2.8. Bcl-2 inhibition assay
Mix all reagents thoroughly without foaming before use. Wash the microwells twice with approximately 300 μL Wash Buffer per well with thorough aspiration of microwell contents between washes. Take caution not to scratch the surface of the microwells. After the last wash, empty the wells and tap microwell strips on absorbent pad or paper towel to remove excess Wash Buffer. Use the microwell strips immediately after washing or place upside down on a wet absorbent paper for not longer than 15 minutes. […] Add 100 μL of Sample […]
Diluent in duplicate to all standard wells and to the blank wells. Prepare standard (1:2 dilution) in duplicate ranging from 32 ng/mL to 0.5 ng/mL. Add 100 μL of Sample Diluent, in duplicate, to the blank wells. Add 80 μL of Sample Diluent, in duplicate, to the sample wells. Add 20 μL of each Sample, in duplicate, to the designated wells. Add 50 μL of diluted biotin-conjugate to all wells, including the blank wells. Cover with a plate cover and incubate at room temperature, on a microplate shaker at 100 rpm if available, for 2 hours. Remove plate cover and empty the wells.
Wash microwell strips 3 times as described in step 2. Add 100 μL of diluted Streptavidin-HRP to all wells, including the blank wells. Cover with a plate cover and incubate at room temperature, on a microplate shaker at 100 rpm if available, for 1 hour. Remove plate cover and empty the wells.
Wash microwell strips 3 times as described in step 2. Proceed to the next step. Pipette 100 μl of mixed TMB Substrate Solution to all wells, including the blanks. Incubate the microwell strips at room temperature (18° to 25°C) for about 15 minutes, if available on a rotator set at 100 rpm.
Avoid direct exposure to intense light. The point, at which the substrate reaction is stopped, is often determined by the ELISA reader. Many ELISA readers record absorbance only up to 2.0
O.D. Therefore, the color development within individual microwells must be watched by the person running the assay and the substrate reaction stopped before positive wells are no longer properly detectable. Stop the enzyme reaction by quickly pipetting 100 μL of Stop Solution into each well, including the blank wells. It is important that the Stop Solution is spread quickly and uniformly throughout the microwells to completely inactivate the enzyme. Results must be read immediately after the Stop Solution is added or within one hour i f the microwell strips are stored at 2 - 8°C in the dark. Read absorbance of each microwell on a spectrophotometer using 450 nm as the primary wavelength.

Row | melting point [°C] | Compound | Caspase-3 Fold change [1] | Caspase-3 Conc [1] [pg/mL] | Bax Fold change [2] | Bax Conc [2] [pg/mL] | Caspase-8 Fold change [3] | Caspase-8 Conc [3] [ng/mL] | Bcl-2 Conc [4] [ng/mL] | Bcl-2 Fold reduction ([4]; at IC50, vs untreated control)
1 | 180 to 182 | CCc1c2cc(Cl)ccc2n2c(C)c(C(=O)OCc3ccccc3)[nH]c(=O)c12 [Compound 5, benzyl 8-chloro-10-ethyl-4-methyl-1-oxo-1,2-dihydropyrazino [1,2-a]indole-3-carboxylate] |  |  |  |  |  |  |  | 
2 |  | CCc1c2cc(Cl)ccc2n2cc(Cc3ccccc3)n(C)c(=O)c12 [Compound 12, 3-Benzyl-8-chloro-10-ethyl-2-methylpyrazino[1,2-a]indol-1(2H)-one] | 9 | 580 ± 5 | 41 | 368 ± 3 | 29 | 2.60 ± 0.20 | 0.65 | 
3 |  | CCc1c2cc(Cl)ccc2n2cc(-c3ccccc3)[nH]c(=O)c12 [Compound 16, 8-Chloro-10-ethyl-3-phenylpyrazino [1,2-a]indol-1(2H)-one] | 8 | 530 ± 5 | 35 | 315 ± 3 | 25 | 2.25 ± 0.18 | 0.85 | ~6
